Data taken from patent US20230093594A1, “PANTETHENOYLCYSTEINE DERIVATIVES AND USES THEREOF” (Comet Therapeutics, Inc., priority 2019, published 2023).

Tests used:
[1] = test system: Venular Endothelial cells (HUVEC) (4H system); assay: BioMAP 4H system (IL-4 and histamine, 24h); assay type: cell-based, human; details: procedure of Example 42, 10 μM
Experimental: (§1) The BioMAP platform is an in vitro phenotypic profiling technology that screened the compounds of the present disclosure (hereafter indicated as test agents) in human primary cell-based systems modelling complex tissue and disease states. The BioMAP assays were performed using the Eurofin's BioMAP Technology Platform as referenced in below articles to model different diseases on primary cell-based model systems. These systems consisted of either single primary cell types or co-culture cells. Adherent cell types were cultured or co-cultured in 96 or 384-well plates until confluence followed by the addition of compounds prepared in DMSO at a final concentration of <0.1%. In each cell-based system, primary cells from heathy donors (2-6 donors) were pooled and treated with compounds at 1 and 10 μM dose 1h prior to stimulation and remain in culture as indicated in Example 41, Example 42, Example 43, Example 44, Example 45, Example 46, Example 47, Example 48, Example 49, Example 50, Example 51, Example 52.
Following the general procedure as described in Example 40, Venular Endothelial cells (HUVEC) (4H system) were treated with IL-4 and histamine for 24h to model Th2 driven allergy and autoimmunity in the presence or absence of compounds. […]

[2] = test system: Bronchial epithelial cells co-cultured with dermal fibroblast (BF4T system); assay: BioMAP BF4T system (TNFα and IL-4, 24h); assay type: cell-based, human; details: procedure of Example 46 (BF4T), 10 μM
Experimental: as §1
Following the general procedure as described in Example 40, Bronchial epithelial cells were co-cultured with dermal fibroblast (BF4T system) and were treated with TNFα. and IL-4 for 24h in the presence or absence of the compounds to model asthma, allergy, fibrosis, lung inflammation. Biomarkers read out were; MCP-1, Eotaxin-3, VCAM-1, ICAM-1, CD90, IL-8, IL-la, keratin 8/18, MMP-1, MMP-3, MMP-9, PAI-1, SRB, tPA, uPA.

[3] = test system: MMA Patient fibroblasts (GM00371); assay: Mitochondrial morphology imaging in MMA patient fibroblasts (GM00371); assay type: cell-based; details: image compared with fragmented mitochondria in vehicle control
[4] = test system: Peripheral blood mononuclear cells co-cultured with venular endothelial cells (Sag system); assay: BioMAP SAg system (T-cell ligands); assay type: cell-based, human; details: procedure of Example 44 (SAg), 10 μM
Experimental: as §1, with “In each cell-based system, primary cells from heathy donors (2-6 donors) were pooled and treated with compounds at 1 and 10 μM dose 1h prior to stimulation and remain in culture as indicated in Example 41, Example 42, Example 43, Example 44, Example 45, Example 46, Example 47, Example 48, Example 49, Example 50, Example 51, Example 52.” left out
Following the general procedure as described in Example 40, Peripheral blood mononuclear cells were co-cultured with venular endothelial cells and treated with […] (T-cell ligands) (Sag system) in the presence or absence of compounds to model autoimmune and chronic inflammation Biomarkers read out were; MCP-1, CD38, CD40, E-selectin, CD69, IL-8, MIG, PBMC cytotoxicity, Proliferation and SRB.

[5] = test system: Peripheral blood mononuclear cells co-cultured with venular endothelial cells (HUVEC) (LPS system); assay: BioMAP LPS system (LPS, 24h); assay type: cell-based, human; details: procedure of Example 43 (LPS)
Experimental: as §1
Following the general procedure as described in Example 40, Peripheral blood mononuclear cells co-cultured with venular endothelial cells (HUVEC) (LPS system) were stimulated with LPS for 24h in the presence or absence of compounds, to model cardiovascular disease and chronic inflammation. Biomarkers read out were; MCP-1, VCAM-1, Thrombomodulin, Tissue Factor, CD40, E-selectin, CD69, IL-8, IL-1α, M-CSF, sPGE2, SRB and TNFα.

[6] = test system: Keratinocytes co-cultured with dermal fibroblast (KF3CT system); assay: BioMAP KF3CT system (IL-1β, TNFα, IFNγ, TGFβ, 24h); assay type: cell-based, human; details: procedure of Example 50 (KF3CT), 1 μM
Experimental: as §1
Following the general procedure as described in Example 40, Keratinocytes were co-cultured with dermal fibroblast (KF3CT system) and treated with IL-1β, TNFα, IFNγ and TGFβ for 24h in the presence or absence of the compounds to model psoriasis, dermatitis and skin biology. Biomarkers read out were; MCP-1, ICAM-1, IP-10, IL-8, MIG, IL-1α, MMP-9, PAI, SRB, TIMP-2, uPA.

[7] = test system: Venular endothelial cells co-cultured with macrophages (Mphg system); assay: BioMAP Mphg system (TLR2 ligand, 24h); assay type: cell-based, human
Experimental: as §1
Following the general procedure as described in Example 40, Venular endothelial cells co-cultured with macrophages (Mphg system) and treated with TLR2 ligand for 24h in the presence or absence of the compounds to mimic cardiovascular inflammation, restenosis and chronic inflammation. Biomarkers read out were; MCP-1, MIP-1α, VCAM-1, CD40, E-selectin, CD69, IL-8, IL-1α, M-CSF, sIL-10 and SRB.

[8] = test system: Dermal fibroblasts (HDF3CGF system); assay: BioMAP HDF3CGF system (IL-1β, TNFα, IFNγ, EGF, bFGF, PDGF-BB, 24h); assay type: cell-based, human; details: procedure of Example 49 (HDF3CGF), 10 μM
Experimental: as §1
Following the general procedure as described in Example 40, Dermal fibroblasts (HDF3CGF system) were treated with IL-1β, TNFα and IFNγ, EGF, bFGF and PDGF-BB for 24h in the presence or absence of the compounds to model fibrosis and chronic inflammation. Biomarkers read out were; MCP-1, VCAM-1, ICAM-1, Collagen-I, Collagen-III, IP-10, I-TAC, IL-8, MIG, EGFR, M-CSF, MMP-1, PAI-1, SRB, TIMP-1, TIMP-2 and proliferation was measured for 72h.

[9] = test system: Bronchial epithelial cells (BE3C system); assay: BioMAP BE3C system (IL-1β, TNFα, IFNγ, 24h); assay type: cell-based, human; details: procedure of Example 47 (BE3C), 10 μM
Experimental: as §1, with “In each cell-based system, primary cells from heathy donors (2-6 donors) were pooled and treated with compounds at 1 and 10 μM dose 1h prior to stimulation and remain in culture as indicated in Example 41, Example 42, Example 43, Example 44, Example 45, Example 46, Example 47, Example 48, Example 49, Example 50, Example 51, Example 52.” left out
Following the general procedure as described in Example 40, Bronchial epithelial cells (BE3C system) were treated with IL-1β, TNFα and IFNγ for 24h in the presence or absence of the compounds to model lung inflammation and chronic obstructive pulmonary disease (COPD). Biomarkers read out were; ICAM-1, uPAR, IP-10, I-TA C, IL-A, MIG, EGFR, HLA-DR, IL-1α, Keratin 8/18, MMP-1, MMP-9, PAI-1, SRB, tPA, uPA.

[10] = test system: Peripheral blood mononuclear cells co-cultured with B-cells (BT system); assay: BioMAP BT system (a-IgM and TCR ligands, 72h); assay type: cell-based, human; details: procedure of Example 45 (BT)
Experimental: as §1
Following the general procedure as described in Example 40, Peripheral blood mononuclear cells were co-cultured with B-cells (BT system) were treated with either a-IgM and TCR ligands for 72h in the presence or absence of the compounds to model asthma, allergy, oncology and autoimmunity. Biomarkers read out were; B-cell proliferation, PBMC cytotoxicity, secreted IgG, sIL-17A, sIL-17F, siL-2, sIL-6 and s-TNFα.

[11] = test system: Venular Endothelial cells (HUVEC) (3C system); assay: BioMAP 3C system (IL-1β, TNFα, IFNγ, 24h); assay type: cell-based, human; details: procedure of Example 41 (3C), 10 μM
Experimental: as §1, with “In each cell-based system, primary cells from heathy donors (2-6 donors) were pooled and treated with compounds at 1 and 10 μM dose 1h prior to stimulation and remain in culture as indicated in Example 41, Example 42, Example 43, Example 44, Example 45, Example 46, Example 47, Example 48, Example 49, Example 50, Example 51, Example 52.” left out
Following the general procedure as described in Example 40, Venular Endothelial cells (HUVEC) (3C system) were treated with IL-1β, TNFα, IFNγ for 24h to model Th1 driven cardiovascular and chronic inflammation diseases in the presence or absence of the compounds. Biomarker read out were; Tissue Factor, ICAM-1, E-selectin, uPAR (CD87), IL-8, MIG, HLA-DR, proliferation and SRB (Sulfo-rhodamine i.e., staining for protein content).

[12] = test system: human primary cell-based systems; assay: BioMAP assay, general procedure of Example 40 (system not stated)
Experimental: as §1

[13] = test system: MMA Patient fibroblasts (TSI 3739); assay: Mitochondrial morphology imaging in MMA patient fibroblasts (TSI 3739); assay type: cell-based; details: image compared with fragmented mitochondria in vehicle control
[14] = procedure of Example 52 (Mphg), 10 μM

In the case of `COC(=O)CCC(=O)SC[C@H](NC(=O)CCNC(=O)[C@H](O)C(C)(C)CO)C(=O)OC` [Compound 8, methyl 4-[[(2R)-2-[3-[(2R)-2,4-dihydroxy-3,3-dimethylbutanamido]propanamido]-3-methoxy-3-oxopropyl]sulfanyl]-4-oxobutanoate], the “% decrease in E-Selectin” value [1] is reported as no less than 20%, the “% decrease in IL-1α” value [2] is reported as no less than 10% and the “% decrease in MMP-9” value [2] is reported as no less than 10%. For the same compound, the “% increase in VCAM-1” value [2] was no less than 10%, the “mitochondrial morphology (elongation and networking of mitochondria)” value [3] was “elongation and networking of mitochondria promoted” and the “% increase in CD69” value [4] was no less than 10%. For the same compound, the “% decrease in IL-1α” value ([5]; 1 μM) was no less than 20%, the “% decrease in IL-8” value ([5]; 10 μM) was no less than 20% and the “% decrease in M-CSF” value ([5]; 10 μM) was no less than 10%. The “% decrease in TissueFactor” value ([5]; 10 μM) was no less than 10%, the “% increase in sTNFα” value ([5]; 10 μM) was no less than 10% and the “% decrease in MMP-9” value [6] was no less than 10%. The “% decrease in CD69” value ([7]; procedure of Example 52 (Mphg), 1 μM) was no less than 20%, the “% decrease in E-Selectin” value [7, 14] was no less than 10% and the “% decrease in IL-8” value [7, 14] was no less than 20%. The “% decrease in α-SMA” value ([7]; procedure of Example 52, 1 μM) was no less than 10%, the “% increase in MMP-1” value ([7]; procedure of Example 52, 1 μM) was no less than 10% and the “% decrease in TIMP-1” value [8] was no less than 10%. For the same compound, the “% decrease in TIMP-2” value [8] was no less than 10%, the “% increase in Collagen III” value [8] was no less than 20% and the “% decrease in uPA” value [9] was no less than 10%. For the same compound, the “% increase in PAI-I” value [9] was no less than 10%, the “% decrease in sTNFα” value ([10]; 1 μM) was no less than 10% and the “% decrease in sIL-17” value ([10]; 10 μM) was no less than 20%. The “% increase in sIL-2” value ([10]; 10 μM) was no less than 20%, the “% decrease in IL-8” value [11] was no less than 10% and the “% decrease in Serum Amyloid A” value ([12]; procedure of Example 40, 1 μM) was no less than 10%. The “% decrease in VCAM-1” value ([12]; procedure of Example 40, 1 μM) was no less than 10%, the “% increase in Collagen I” value ([12]; procedure of Example 40, 1 μM) was no less than 10% and the “% decrease in Proliferation” value ([12]; procedure of Example 40, 10 μM) was no less than 10%. The “% decrease in Thrombomodulin” value ([12]; procedure of Example 40, 10 μM) was no less than 20%, the “% increase in HLA-DR” value ([12]; procedure of Example 40, 10 μM) was no less than 10% and the “% increase in IL-6” value ([12]; procedure of Example 40, 10 μM) was no less than 10%. For the same compound, the “mitochondrial morphology (elongation and networking of mitochondria)” value [13] was “elongation and networking of mitochondria promoted”.
